Experimental data from US20210252159A1, “CONJUGATES OF CARTILAGE-HOMING PEPTIDES” (priority 2018, published 2021).
Like-named read-outs stand apart in the source and are kept apart here. Positions of bridges follow the written chain, without caps; N, C: chain ends. Residues, ends and D or L forms follow the SMILES beside them. *: point of attachment. X6 = C[C@@H]1C[C@H]2[C@@H]3CCC4=CC(=O)C=C[C@]4(C)[C@@]3(F)[C@@H](O)C[C@]2(C)[C@@]1(O)C(=O)COC(=O)CC1(CC(=O)*)CCCC1; X5 = C[C@@H]1C[C@H]2[C@@H]3CCC4=CC(=O)C=C[C@]4(C)[C@@]3(F)[C@@H](O)C[C@]2(C)[C@@]1(O)C(=O)COC(=O)CCCCC(=O)*

Assays:
[1] = IL-1β challenge rat model, dose-ranging study: CBC, organ weights, tolerability; assay type: in vivo, rats; conditions: 7 hours post administration
Procedure: IL-6 was measured in knee lavage fluid using a Luminex assay and levels were normalized to total protein in the lavage fluid (FIG. 24). Assessment of the PD inflammatory marker IL-6 in the knee joints of rats challenged with IL-1β was performed. Terminal synovial fluid was collected from all animals and analyzed by Luminex 200 for IL-6 cytokine concentrations using EMD Milliplex MAP Rat Cytokine/Chemokine Magnetic Panel ([…]-65K). […] Doses are listed as nmol/kg The masses of these doses are given below in TABLE 16. Two hours and forty-five minutes (i.e., 2.75 hrs) after administration of the test agents, animals were gently heated and blood was drawn from the tail vein for CBC analysis. Animals were then anesthetized with inhaled isoflurane and injected with 30 ng of IL-1β into the right knee (except for no IL-1β group). Four hours after administration of IL-1β (seven hours after administration of test agent) the animals were euthanized. Blood was drawn for a second CBC analysis and the right knee was lavaged for detection of IL-6 in the lavage fluid using a Luminex assay. Thymus and spleen were harvested and their organ weights determined.
In the same animals for which IL-6 secretion was measured, CBC data (e.g., lymphocyte counts) were also analyzed (FIG. 25) at an early time-point, 2.75 hrs post administration of the test article (FIG. 25A), and at euthanasia 7 hrs post administration (FIG. 25B). All treatments were administered as described above for the measurement of IL-6 secretion.
All treatments and test articles were administered as described above, except for an additional treatment group that received 510 nmol/kg of the peptide-drug conjugate peptide(SEQ ID NO: 105)-DMA-dCIC.

[2] = test system: CIA rats; assay type: in vivo
Procedure: Ankle diameter measurements were recorded daily starting on induction day 9 and continuing for the duration of the study. […] Each treatment was administered on the day of enrollment (study day 0) and repeated daily for 7 days (study day 6). Rats were euthanized 3 h after the final dose and blood and organs were collected for testing.

[3] = Hydrolysis assay of peptide-drug conjugates in rat plasma (free drug by LC/MS); assay type: in vitro ADME; conditions: 37° C.
Procedure: Peptide-drug conjugate peptide(SEQ ID NO: 105)-DMA-dCIC was incubated in rat plasma at 37° C. Samples were removed at regular intervals, processed by solvent extraction, and analyzed by LC/MS to quantitate free dCIC. 11 time-points were measured between 5 min and 56 hours with 3 replicates per time point. The assay was repeated two times.
In order to determine hydrolysis rates, conjugates can be diluted in PBS, rat plasma, or human plasma and incubated at 37 degrees. Samples can be taken at designated time-points (e.g., 1, 2, 3, 5, 10, 15, 20, 25, 30, 45, 60, or 90 minutes and/or hours after administration). Internal standards such as triamcinolone acetonide (TAA) can be added as an internal standard, and then active agent/TAA can be extracted using acetonitrile, for example. The samples can be dried down, reconstituted, and analyzed by LC/MS. Data can be normalized using Dex AUC/TAA AUC. Percent hydrolysis can be calculated using the average ratio for active agent AUC/TAA AUC at a time point of maximal drug release. A general method can include using a lyophilized, purified peptide-drug conjugates reconstituted in DMSO following production to generate stock solution at 20 mg/mL. Each conjugate stock can be brought to 0.25 mg/mL in each hydrolysis condition (1×DPBS, human plasma and rat plasma) in triplicate and rocked at 37° C. To quantitate free active agent, 100 μl of the hydrolyzed conjugate solution can be transferred into 1 mL acetonitrile at 4° C. at which time all plasma proteins and intact conjugates can precipitate. This can be performed repeatedly to generate a series of time points (0 hr, 0.5 hr, 1 hr, 2 hr, 4 hr, 6 hr, 8 hr, 24 hr, 32 hr). The acetonitrile solution can be spun at 17,000 g for 5 minutes, and the supernatant removed and added to a 96 well block. The pellet can then be resuspended in 500 μl acetonitrile and re-pelleted as before. The supernatant can be removed and added to the same well in the block. Samples can be prepared for analysis by drying under a nitrogen stream followed by reconstitution in 110 μl 45:55 ACN:Citrate 10 mM pH 5.5. To ensure optimal recovery the block can be shaken via plate shaker at 7,000 rpm for 5 minutes during the reconstitution step. Prior to LC/MS the samples can be transferred to a 96 well plate and centrifuged at 6,500 g for 15 minutes. Analysis can be performed on an Agilent 1260 Infinity series HPLC with inline 6120 single quad MS using acetonitrile, water (+0.1% TFA) gradient (shown below) on an InfinityLab Poroshell SB-C18 column. Quantification of free active agent (or drug) can be achieved through integration of active agent peaks of the TIC.
Lyophilized, purified peptide-drug conjugates were reconstituted in DMSO following production to generate stock solution at 20 mg/mL. Each conjugate stock was brought to 0.25 mg/mL in each hydrolysis condition (1×DPBS, human plasma and rat plasma) in triplicate and rocked at 37° C.
To quantitate free dexamethasone (Dex), 100 μl of the hydrolyzed conjugate solution was transferred into 1 mL acetonitrile at 4° C. at which time all plasma proteins and intact conjugates precipitated. This was performed repeatedly to generate a series of time points (0 hr, 0.5 hr, 1 hr, 2 hr, 4 hr, 6 hr, 8 hr, 24 hr, 32 hr). The corticosteroid triamcinolone acetonide (25 μl, 0.1 mg/mL in 45:55 ACN:Citrate 10 mM pH 5.5) was supplemented into the acetonitrile solution as an internal standard. The acetonitrile solution was spun at 17,000 g for 5 minutes, and the supernatant removed and added to a 96 well block. The pellet was resuspended in 500 μl acetonitrile and re-pelleted as before. The supernatant was removed and added to the same well in the block.
Samples were prepared for analysis by drying under a nitrogen stream followed by reconstitution in 110 μl 45:55 ACN:Citrate 10 mM pH 5.5. To ensure optimal recovery the block was shaken via plate shaker at 7,000 rpm for 5 minutes during the reconstitution step. […]

[4] = 0.05 mg/kg daily for 7 days, study day 6
[5] = in rat plasma, free Dex, read-out: Hydrolysis half-life (converted)

SMILES | spleen and thymus weights at euthanasia [1] | ankle diameter on study day 6 versus day 0, compared to vehicle ([2]; 0.05 mg/kg) | plasma lymphocyte counts as compared to vehicle [2, 4] | spleen weight as compared to vehicle [2, 4] | thymus weight as compared to vehicle [2, 4] | ankle inflammation ([2]; highest dose of 0.05 mg/kg daily for 7 days) | ankle inflammation ([2]; lower doses (0.001, 0.005, 0.01 mg/kg) daily for 7 days) | half-life at 0.25 mg/mL ([3]; Rat Plasma, release of free Dex, time points to 32 hr, read-out: Half-life (hours) as measured in the hydrolysis experiments (converted)) [h] | half-life at 0.25 mg/mL [3, 5] [h]
C[C@@H]1C[C@H]2[C@@H]3CCC4=CC(=O)C=C[C@]4(C)[C@@]3(F)[C@@H](O)C[C@]2(C)[C@@]1(O)C(=O)COP(=O)(O)O [DexSP, Dexamethasone sodium phosphate, reference compound] | reduction in the weight of both organs | statistically different than vehicle | significantly reduced | significantly reduced | significantly reduced | effective at reducing ankle inflammation | indistinguishable from vehicle | – | –
CC[C@H](C)[C@@H]1NC(=O)[C@@H]2CSSC[C@H](NC(=O)[C@H](CCCNC(=N)N)NC(=O)[C@@H](NC(=O)[C@H](CC(N)=O)NC(=O)[C@@H](NC(=O)[C@@H]3CCCN3C(=O)[C@@H](NC(=O)CNC(=O)[C@H](CO)NC(=O)CNC(=O)CCCCC(=O)OCC(=O)[C@@]3(O)[C@H](C)C[C@H]4[C@@H]5CCC6=CC(=O)C=C[C@]6(C)[C@@]5(F)[C@@H](O)C[C@@]43C)C(C)C)[C@@H](C)CC)C(C)C)C(=O)N[C@@H](CCCNC(=N)N)C(=O)NCC(=O)N[C@@H](CO)C(=O)N[C@@H](CCCNC(=N)N)C(=O)N[C@@H](CC(=O)O)C(=O)N[C@H]3CSSC[C@H](NC(=O)[C@H](CCCNC(=N)N)NC(=O)[C@H](CO)NC(=O)[C@H](CC(N)=O)NC1=O)C(=O)N[C@@H](Cc1c[nH]cn1)C(=O)N[C@H](C(=O)N[C@H](C(=O)N1CCC[C@H]1C(=O)O)[C@@H](C)O)CSSC[C@H](NC(=O)[C@@H]1CCCN1C(=O)[C@H](CC(=O)O)NC(=O)[C@H](CC(C)C)NC3=O)C(=O)N[C@@H](CCCNC(=N)N)C(=O)N[C@@H](CCCNC(=N)N)C(=O)N[C@@H](C)C(=O)NCC(=O)N[C@@H](CCSC)C(=O)N[C@@H](CCCNC(=N)N)C(=O)N[C@@H](Cc1ccccc1)C(=O)NCC(=O)N[C@@H](CCCNC(=N)N)C(=O)N2 [Compound 24, Peptide(SEQ ID NO: 105)-adipic acid-Dex] (X5-GSGVPINVRCRGSRDCLDPCRRAGMRFGRCINSRCHCTP-OH; disulfide 10-30, 16-35, 20-37 (inferred); C-terminus assumed) | – | – | – | – | – | – | – | 2.8 | 2.6
CC[C@H](C)[C@@H]1NC(=O)[C@@H]2CSSC[C@H](NC(=O)[C@H](CCCNC(=N)N)NC(=O)[C@@H](NC(=O)[C@H](CC(N)=O)NC(=O)[C@@H](NC(=O)[C@@H]3CCCN3C(=O)[C@@H](NC(=O)CNC(=O)[C@H](CO)NC(=O)CNC(=O)CC3(CC(=O)OCC(=O)[C@@]4(O)[C@H](C)C[C@H]5[C@@H]6CCC7=CC(=O)C=C[C@]7(C)[C@@]6(F)[C@@H](O)C[C@@]54C)CCCC3)C(C)C)[C@@H](C)CC)C(C)C)C(=O)N[C@@H](CCCNC(=N)N)C(=O)NCC(=O)N[C@@H](CO)C(=O)N[C@@H](CCCNC(=N)N)C(=O)N[C@@H](CC(=O)O)C(=O)N[C@H]3CSSC[C@H](NC(=O)[C@H](CCCNC(=N)N)NC(=O)[C@H](CO)NC(=O)[C@H](CC(N)=O)NC1=O)C(=O)N[C@@H](Cc1c[nH]cn1)C(=O)N[C@H](C(=O)N[C@H](C(=O)N1CCC[C@H]1C(=O)O)[C@@H](C)O)CSSC[C@H](NC(=O)[C@@H]1CCCN1C(=O)[C@H](CC(=O)O)NC(=O)[C@H](CC(C)C)NC3=O)C(=O)N[C@@H](CCCNC(=N)N)C(=O)N[C@@H](CCCNC(=N)N)C(=O)N[C@@H](C)C(=O)NCC(=O)N[C@@H](CCSC)C(=O)N[C@@H](CCCNC(=N)N)C(=O)N[C@@H](Cc1ccccc1)C(=O)NCC(=O)N[C@@H](CCCNC(=N)N)C(=O)N2 [Compound 26, Peptide(SEQ ID NO: 105)-3,3,-tetramethylene-glutaric acid-Dex] (X6-GSGVPINVRCRGSRDCLDPCRRAGMRFGRCINSRCHCTP-OH; disulfide 10-30, 16-35, 20-37 (inferred); C-terminus assumed) | – | – | – | – | – | – | – | – | 1.1
